Experimental data reported in patent US8802700B2 (Vertex Pharmaceuticals Incorporated, priority 2010, dated 2014).

Target: T1, ΔF508-CFTR (Homo sapiens, UniProt P13569, DEL508-508)
T1 construct: expressed in transfected cells
Experiment: Membrane potential optical assay (FRET voltage-sensor dyes, VIPR), identification of potentiator compounds
Type: cell-based
Details: Table 3; assay not given
Outline: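 NIH3T3 mouse fibroblasts stably expressing ΔF508-CFTR, cultured 24 h at 27 °C, were loaded with FRET voltage dyes CC2-DMPE and DiSBAC2(3). Double-addition format: first addition of Cl⁻-free (gluconate) medium with or without compound; membrane-potential change read as fluorescence on VIPR II.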

T1 sequence (P13569 with tags, fused parts or gaps DEL508-508): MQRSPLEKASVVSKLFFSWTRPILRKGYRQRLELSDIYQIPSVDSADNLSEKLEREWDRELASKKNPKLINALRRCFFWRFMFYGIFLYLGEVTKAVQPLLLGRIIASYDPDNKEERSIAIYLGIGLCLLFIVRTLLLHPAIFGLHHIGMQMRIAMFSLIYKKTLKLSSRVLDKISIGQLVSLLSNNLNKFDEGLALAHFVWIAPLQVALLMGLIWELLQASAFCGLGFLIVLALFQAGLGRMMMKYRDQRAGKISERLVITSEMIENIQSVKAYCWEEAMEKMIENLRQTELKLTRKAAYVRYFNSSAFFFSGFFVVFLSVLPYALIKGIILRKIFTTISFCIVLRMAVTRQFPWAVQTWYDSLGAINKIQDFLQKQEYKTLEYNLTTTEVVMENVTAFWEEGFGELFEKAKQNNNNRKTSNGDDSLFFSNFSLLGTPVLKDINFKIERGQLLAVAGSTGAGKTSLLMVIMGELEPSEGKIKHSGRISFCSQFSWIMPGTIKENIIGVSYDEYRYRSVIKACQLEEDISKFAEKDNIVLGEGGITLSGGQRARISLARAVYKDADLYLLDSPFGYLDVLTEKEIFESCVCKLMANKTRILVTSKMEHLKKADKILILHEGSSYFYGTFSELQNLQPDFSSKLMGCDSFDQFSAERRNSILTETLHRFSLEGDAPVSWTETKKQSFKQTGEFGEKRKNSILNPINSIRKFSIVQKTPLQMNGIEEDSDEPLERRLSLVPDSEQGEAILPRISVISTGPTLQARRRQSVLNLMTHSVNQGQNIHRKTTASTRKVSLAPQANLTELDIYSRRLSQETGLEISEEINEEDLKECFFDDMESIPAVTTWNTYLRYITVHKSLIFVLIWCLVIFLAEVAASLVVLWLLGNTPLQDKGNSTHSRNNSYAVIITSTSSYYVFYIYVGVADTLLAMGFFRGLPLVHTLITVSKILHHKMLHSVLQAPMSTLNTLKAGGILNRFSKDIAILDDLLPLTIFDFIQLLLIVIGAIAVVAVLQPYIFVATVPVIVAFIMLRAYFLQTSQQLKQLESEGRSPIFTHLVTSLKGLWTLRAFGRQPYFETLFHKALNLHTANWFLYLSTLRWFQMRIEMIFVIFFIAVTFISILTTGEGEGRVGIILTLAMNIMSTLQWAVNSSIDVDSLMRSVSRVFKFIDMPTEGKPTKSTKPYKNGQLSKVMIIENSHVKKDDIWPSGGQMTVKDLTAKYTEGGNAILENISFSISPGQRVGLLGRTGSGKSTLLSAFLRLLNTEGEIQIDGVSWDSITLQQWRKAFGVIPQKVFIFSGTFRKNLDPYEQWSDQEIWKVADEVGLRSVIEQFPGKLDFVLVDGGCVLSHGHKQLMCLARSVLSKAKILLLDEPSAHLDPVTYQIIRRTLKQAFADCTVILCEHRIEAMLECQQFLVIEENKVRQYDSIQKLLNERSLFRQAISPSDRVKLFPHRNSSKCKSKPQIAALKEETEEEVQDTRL

Compared with `O=C(Nc1cc(O)c2ccccc2c1)c1c[nH]c2ccccc2c1=O` [Compound 551, N-(4-hydroxy-2-naphthyl)-4-oxo-1H-quinoline-3-carboxamide], `CC(=O)Nc1cccc(-c2ccccc2NC(=O)c2c[nH]c3ccccc3c2=O)c1` [Compound 25, N-[2-(3-acetylaminophenyl)phenyl]-4-oxo-1H-quinoline-3-carboxamide] is higher in EC50: under 10 µM for the first, 10 to 25 µM for the second. The first is the more potent here.

`CC(C)(C)c1cc(Cl)c(NC(=O)c2c[nH]c3ccccc3c2=O)cc1O` [Compound 291, N-(2-chloro-5-hydroxy-4-tert-butyl-phenyl)-4-oxo-1H-quinoline-3-carboxamide] and `O=C(Nc1ccc(N2CCCC2)cc1)c1c[nH]c2ccccc2c1=O` [Compound 674, 4-oxo-N-(4-pyrrolidin-1-ylphenyl)-1H-quinoline-3-carboxamide] cannot be ordered by EC50: under 10 µM for the first, under 10 µM for the second.

Same assay, conditions: Table 3; assay not given; read-out: % Activity (% Efficacy, relative efficacy)

`Cc1cccc2[nH]cc(C(=O)Nc3ccc(N4[C@H](C)CC[C@H]4C)cc3C(F)(F)F)c(=O)c12` [Compound 539, N-(4-((2R,5R)-2,5-dimethylpyrrolidin-1-yl)-2-(trifluoromethyl)phenyl)-5-methyl-4-oxo-1,4-dihydroquinoline-3-carboxamide] and `Cc1cccc2[nH]cc(C(=O)Nc3ccc(N4[C@H](C)CC[C@@H]4C)cc3C(F)(F)F)c(=O)c12` [Compound 592, N-(4-((2R,5S)-2,5-dimethylpyrrolidin-1-yl)-2-(trifluoromethyl)phenyl)-5-methyl-4-oxo-1,4-dihydroquinoline-3-carboxamide] fall in the same range of Emax: 25 to 100% for the first, 25 to 100% for the second.

`CC1(C)CCNc2cc(NC(=O)c3c[nH]c4ccccc4c3=O)ccc21` [Compound 300, N-(4,4-Dimethyl-1,2,3,4-tetrahydroquinolin-7-yl)-4-oxo-1H-quinoline-3-carboxamide] and `Nc1cc(NC(=O)c2c[nH]c3ccccc3c2=O)ccc1Cl` [Compound 453, N-(3-amino-4-chloro-phenyl)-4-oxo-1H-quinoline-3-carboxamide] fall in the same range of Emax: 25 to 100% for the first, 25 to 100% for the second.

First: COc1ccc(NC(=O)c2c[nH]c3ccccc3c2=O)cc1 [Compound 439, N-(4-methoxyphenyl)-4-oxo-1H-quinoline-3-carboxamide]
Second: N#CCc1ccc(NC(=O)c2c[nH]c3ccccc3c2=O)cc1 [Compound 110, N-[4-(cyanomethyl)phenyl]-4-oxo-1H-quinoline-3-carboxamide]
The Emax of the first is higher: 25 to 100% for the first, under 25% for the second.

`CCCCOC(=O)NCC(C)(C)c1ccc(NC(=O)c2c[nH]c3ccccc3c2=O)cc1` [Compound 460, [2-methyl-2-[4-[(4-oxo-1H-quinolin-3-yl)carbonylamino]phenyl]-propyl]aminoformic acid butyl ester] and `CC(C)c1ccc(NC(=O)OC(C)(C)C)cc1NC(=O)c1c[nH]c2ccccc2c1=O` [Compound 60, [4-isopropyl-3-[(4-oxo-1H-quinolin-3-yl)carbonylamino]phenyl]aminoformic acid tert-butyl ester] fall in the same range of Emax: 25 to 100% for the first, 25 to 100% for the second.

`O=C(Nc1cccc2c1Cc1ccccc1-2)c1c[nH]c2ccccc2c1=O` [Compound 18, N-(9H-fluoren-1-yl)-4-oxo-1H-quinoline-3-carboxamide] and `O=C(Nc1ccccc1-c1ccco1)c1c[nH]c2ccccc2c1=O` [Compound 115, N-[2-(2-furyl)phenyl]-4-oxo-1H-quinoline-3-carboxamide] fall in the same range of Emax: 25 to 100% for the first, 25 to 100% for the second.

`O=C(Nc1ccccc1Oc1ccccc1)c1c[nH]c2ccccc2c1=O` [Compound 413, 4-oxo-N-(2-phenoxyphenyl)-1H-quinoline-3-carboxamide] and `CCOc1ccccc1NC(=O)c1c[nH]c2ccccc2c1=O` [Compound 380, N-(2-ethoxyphenyl)-4-oxo-1H-quinoline-3-carboxamide] fall in the same range of Emax: 25 to 100% for the first, 25 to 100% for the second.

`COc1cc(N2CCCC2)ccc1NC(=O)c1c[nH]c2ccccc2c1=O` [Compound 675, N-(2-methoxy-4-pyrrolidin-1-yl-phenyl)-4-oxo-1H-quinoline-3-carboxamide] and `O=C(Nc1ccc(N2CCCC2)cc1)c1c[nH]c2ccccc2c1=O` [Compound 674, 4-oxo-N-(4-pyrrolidin-1-ylphenyl)-1H-quinoline-3-carboxamide] fall in the same range of Emax: 25 to 100% for the first, 25 to 100% for the second.

`O=C(Nc1ccc(N2CCN(CCO)CC2)cc1C(F)(F)F)c1c[nH]c2ccccc2c1=O` [Compound 673, N-[4-[4-(2-hydroxyethyl)piperazin-1-yl]-2-(trifluoromethyl)phenyl]-4-oxo-1H-quinoline-3-carboxamide] and `O=C(Nc1ccc(N2CCC[C@H]2CO)cc1C(F)(F)F)c1c[nH]c2ccccc2c1=O` [Compound 634, (S)-N-(4-(2-(hydroxymethyl)pyrrolidin-1-yl)-2-(trifluoromethyl)phenyl)-4-oxo-1,4-dihydroquinoline-3-carboxamide] fall in the same range of Emax: 25 to 100% for the first, 25 to 100% for the second.

`COC(=O)c1ccc(-c2ccccc2NC(=O)c2c[nH]c3ccccc3c2=O)cc1` [Compound 166, 4-[2-[(4-oxo-1H-quinolin-3-yl)carbonylamino]phenyl]benzoic acid methyl ester] and `O=C(Nc1ccccc1-c1ccc(F)cc1)c1c[nH]c2ccccc2c1=O` [Compound 182, N-[2-(4-fluorophenyl)phenyl]-4-oxo-1H-quinoline-3-carboxamide] fall in the same range of Emax: 25 to 100% for the first, 25 to 100% for the second.

`CC(C)(C)c1c[nH]c2cc(NC(=O)c3c[nH]c4cccc(O)c4c3=O)ccc12` [Compound 535, 5-hydroxy-4-oxo-N-(3-tert-butyl-1H-indol-6-yl)-1H-quinoline-3-carboxamide] and `CC(C)c1c[nH]c2cc(NC(=O)c3c[nH]c4ccccc4c3=O)ccc12` [Compound 357, N-(3-isopropyl-1H-indol-6-yl)-4-oxo-1H-quinoline-3-carboxamide] fall in the same range of Emax: 25 to 100% for the first, 25 to 100% for the second.

`O=C(Nc1cc(O)c2ccccc2c1)c1c[nH]c2ccccc2c1=O` [Compound 551, N-(4-hydroxy-2-naphthyl)-4-oxo-1H-quinoline-3-carboxamide] and `O=C(Nc1cccc(-c2cccs2)c1)c1c[nH]c2ccccc2c1=O` [Compound 549, 4-oxo-N-[3-(2-thienyl)phenyl]-1H-quinoline-3-carboxamide] fall in the same range of Emax: 25 to 100% for the first, 25 to 100% for the second.

`CC(=O)Nc1cccc(-c2ccccc2NC(=O)c2c[nH]c3ccccc3c2=O)c1` [Compound 25, N-[2-(3-acetylaminophenyl)phenyl]-4-oxo-1H-quinoline-3-carboxamide] and `CC(C)Cc1ccc(-c2ccccc2NC(=O)c2c[nH]c3ccccc3c2=O)cc1` [Compound 391, N-[2-(4-isobutylphenyl)phenyl]-4-oxo-1H-quinoline-3-carboxamide] fall in the same range of Emax: 25 to 100% for the first, 25 to 100% for the second.

`CC1(c2cc(F)c(NC(=O)c3c[nH]c4cccc(C(F)(F)F)c4c3=O)cc2O)CCCCC1` [Compound 706, N-[2-fluoro-5-hydroxy-4-(1-methylcyclohexyl)-phenyl]-4-oxo-5-(trifluoromethyl)-1H-quinoline-3-carboxamide] and `CC(C)c1cc(C(F)(F)F)c(NC(=O)c2c[nH]c3ccccc3c2=O)cc1O` [Compound 497, N-[5-hydroxy-4-isopropyl-2-(trifluoromethyl)phenyl]-4-oxo-1H-quinoline-3-carboxamide] cannot be ordered by Emax: over 100% for the first, over 100% for the second.

`O=C(Nc1cc(NS(=O)(=O)CCN2CCCCC2)cc(C(F)(F)F)c1)c1c[nH]c2ccccc2c1=O` [Compound 318, 4-Oxo-N-[3-[2-(1-piperidyl)ethylsulfonylamino]-5-(trifluoromethyl)phenyl]-1H-quinoline-3-carboxamide] and `O=C(Nc1ccc(OC(F)(F)F)c(N2CCCC2)c1)c1c[nH]c2ccccc2c1=O` [Compound 579, 4-oxo-N-[3-pyrrolidin-1-yl-4-(trifluoromethoxy)phenyl]-1H-quinoline-3-carboxamide] fall in the same range of Emax: 25 to 100% for the first, 25 to 100% for the second.

`O=C(Nc1cc(O)c(C23CC4CC(CC(C4)C2)C3)cc1F)c1cnc2ccccc2c1O` [Compound 395, N-[4-(1-adamantyl)-2-fluoro-5-hydroxy-phenyl]-4-hydroxy-quinoline-3-carboxamide] and `CCc1ccc2ncc(C(=O)Nc3ccc4cc[nH]c4c3)c(O)c2c1` [Compound 67, 6-ethyl-4-hydroxy-N-(1H-indol-6-yl)quinoline-3-carboxamide] fall in the same range of Emax: 25 to 100% for the first, 25 to 100% for the second.

`CCc1cc(C#N)ccc1NC(=O)c1c[nH]c2ccccc2c1=O` [Compound 451, N-(4-cyano-2-ethyl-phenyl)-4-oxo-1H-quinoline-3-carboxamide] and `N#Cc1cccc(NC(=O)c2c[nH]c3ccccc3c2=O)c1` [Compound 447, N-(3-cyanophenyl)-4-oxo-1H-quinoline-3-carboxamide] fall in the same range of Emax: 25 to 100% for the first, 25 to 100% for the second.

`COc1cc(NC(=O)c2c[nH]c3ccccc3c2=O)c(C(F)(F)F)cc1C(C)(C)C` [Compound 421, N-[5-methoxy-4-tert-butyl-2-(trifluoromethyl)phenyl]-4-oxo-1H-quinoline-3-carboxamide] and `CC(C)(C)c1cc(Cl)c(NC(=O)c2c[nH]c3ccccc3c2=O)cc1O` [Compound 291, N-(2-chloro-5-hydroxy-4-tert-butyl-phenyl)-4-oxo-1H-quinoline-3-carboxamide] fall in the same range of Emax: 25 to 100% for the first, 25 to 100% for the second.

`O=C(Nc1ccccn1)c1c[nH]c2ccccc2c1=O` [Compound 155, 4-oxo-N-(2-pyridyl)-1H-quinoline-3-carboxamide] and `Cc1cccnc1NC(=O)c1c[nH]c2ccccc2c1=O` [Compound 192, N-(3-methyl-2-pyridyl)-4-oxo-1H-quinoline-3-carboxamide] cannot be ordered by Emax: under 25% for the first, under 25% for the second.

First: CCOc1cccc2c(=O)c(C(=O)Nc3cc(O)c(C(C)(C)C)cc3C(C)(C)C)c[nH]c12 [Compound 616, 8-ethoxy-N-(5-hydroxy-2,4-ditert-butyl-phenyl)-4-oxo-1H-quinoline-3-carboxamide]
Second: Cc1c(NC(=O)c2c[nH]c3ccccc3c2=O)cccc1C(F)(F)F [Compound 387, N-[2-methyl-3-(trifluoromethyl)phenyl]-4-oxo-1H-quinoline-3-carboxamide]
The Emax of the first is lower: under 25% for the first, 25 to 100% for the second.

`Cc1ccc(NC(=O)c2c[nH]c3ccccc3c2=O)nc1` [Compound 195, N-(5-methyl-2-pyridyl)-4-oxo-1H-quinoline-3-carboxamide] and `O=C(Nc1cccnc1)c1c[nH]c2ccccc2c1=O` [Compound 168, 4-oxo-N-(3-pyridyl)-1H-quinoline-3-carboxamide] cannot be ordered by Emax: under 25% for the first, under 25% for the second.

`O=C(Nc1ccc2oc(-c3ccccc3)nc2c1)c1c[nH]c2ccccc2c1=O` [Compound 376, 4-oxo-N-(2-phenylbenzooxazol-5-yl)-1H-quinoline-3-carboxamide] and `Cn1cc(C(=O)Nc2ccccc2)c(=O)c2ccccc21` [Compound 468, 1-methyl-4-oxo-N-phenyl-1H-quinoline-3-carboxamide] cannot be ordered by Emax: under 25% for the first, under 25% for the second.
